# “And” between values parts separate entries of the source, which are not always exact repeats. Identical values can stand only once. Inconclusive results and toxic doses are left out.
# Test system: L1210 leukemia ip in BDF1 mice, survival T/C
# Assay: NCI In Vivo Anticancer Drug Screen. Data for tumor model L1210 Leukemia (intraperitoneal) in B6D2F1 (BDF1) mice
# Settings: endpoint: mean survival time, higher = longer survival
# How it was run: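 Transplantable tumor model; survival measured in treated vs vehicle control mice. Value = treated/control.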
# [1] = dose: 100.0 mg/kg/injection, schedule: Q01DX009 (ip), vehicle: saline
# [2] = dose: 100.0 mg/kg/injection, schedule: Q04DX003 (ip), vehicle: saline
# [3] = dose: 200.0 mg/kg/injection, schedule: Q04DX003 (ip), vehicle: saline
# [4] = dose: 400.0 mg/kg/injection, schedule: Q04DX003 (ip), vehicle: saline
# [5] = dose: 100.0 mg/kg/injection, schedule: Q01DX009 (ip), vehicle: Klucel (hydroxypropylcellulose) (HPC)
# [6] = dose: 100.0 mg/kg/injection, schedule: Q04DX003 (ip), vehicle: Klucel (hydroxypropylcellulose) (HPC)
# [7] = dose: 200.0 mg/kg/injection, schedule: Q01DX009 (ip), vehicle: Klucel (hydroxypropylcellulose) (HPC)
# [8] = dose: 200.0 mg/kg/injection, schedule: Q04DX003 (ip), vehicle: Klucel (hydroxypropylcellulose) (HPC)
# [9] = dose: 400.0 mg/kg/injection, schedule: Q01DX009 (ip), vehicle: Klucel (hydroxypropylcellulose) (HPC)
# [10] = dose: 400.0 mg/kg/injection, schedule: Q04DX003 (ip), vehicle: Klucel (hydroxypropylcellulose) (HPC)
smiles,measurement,setting,value
O=S(c1ccccc1)C(Cl)C1(O)CCCCC1 (stereo not drawn),T/C,"dose: 100.0 mg/kg/injection, schedule: Q03DX002 (ip), vehicle: saline with Tween-80",98 % of control
same,T/C,"dose: 200.0 mg/kg/injection, schedule: Q03DX002 (ip), vehicle: saline with Tween-80",98 % of control
same,T/C,"dose: 400.0 mg/kg/injection, schedule: Q03DX002 (ip), vehicle: saline with Tween-80",102 % of control
CCOC(CN)OCC,T/C,[1],114 % of control
same,T/C,[2],112 % of control
same,T/C,"dose: 200.0 mg/kg/injection, schedule: Q01DX009 (ip), vehicle: saline",107 % of control
same,T/C,[3],102 % of control
same,T/C,"dose: 400.0 mg/kg/injection, schedule: Q01DX009 (ip), vehicle: saline",106 % of control
same,T/C,[4],97 % of control
Cc1cnc(C)c(OCCN2CC2)n1,T/C,"dose: 100.0 mg/kg/injection, schedule: Q01DX001 (ip), vehicle: saline",93 % of control
Cc1cc(C)[c]([Hg][Cl])c(C)c1,T/C,"dose: 6.0 mg/kg/injection, schedule: Q01DX009 (ip), vehicle: saline with Tween-80",100 % of control
same,T/C,"dose: 6.0 mg/kg/injection, schedule: Q04DX003 (ip), vehicle: saline with Tween-80",94 % of control
same,T/C,"dose: 12.0 mg/kg/injection, schedule: Q01DX009 (ip), vehicle: saline with Tween-80",87 % of control
same,T/C,"dose: 12.0 mg/kg/injection, schedule: Q04DX003 (ip), vehicle: saline with Tween-80",103 % of control
same,T/C,"dose: 25.0 mg/kg/injection, schedule: Q01DX009 (ip), vehicle: saline with Tween-80",90 % of control
same,T/C,"dose: 25.0 mg/kg/injection, schedule: Q04DX003 (ip), vehicle: saline with Tween-80",92 % of control
CC(C)C/C=N/Nc1ccnc(SCc2ccccc2)n1,T/C,"dose: 100.0 mg/kg/injection, schedule: Q04DX003 (ip), vehicle: DMSO",95 % of control
same,T/C,"dose: 200.0 mg/kg/injection, schedule: Q04DX003 (ip), vehicle: DMSO",103 % of control
same,T/C,"dose: 400.0 mg/kg/injection, schedule: Q04DX003 (ip), vehicle: DMSO",95 % of control
COc1ccc(/C=N/NC(=O)CNC(=O)Nc2cccc(Cl)c2Cl)cc1,T/C,"dose: 50.0 mg/kg/injection, schedule: Q01DX009 (ip), vehicle: saline with Tween-80",93 % of control
same,T/C,"dose: 100.0 mg/kg/injection, schedule: Q01DX009 (ip), vehicle: saline with Tween-80",96 % of control
NC(N)=N/N=C/c1ccncc1,T/C,"dose: 15.0 mg/kg/injection, schedule: Q01DX Z (ip), vehicle: saline",104 % of control
same,T/C,"dose: 25.0 mg/kg/injection, schedule: Q01DX009 (ip), vehicle: saline",104 % of control
same,T/C,"dose: 30.0 mg/kg/injection, schedule: Q01DX Z (ip), vehicle: saline",91 % of control
same,T/C,"dose: 50.0 mg/kg/injection, schedule: Q01DX009 (ip), vehicle: saline",101 % of control
same,T/C,"dose: 60.0 mg/kg/injection, schedule: Q01DX Z (ip), vehicle: saline",107 % of control
same,T/C,"dose: 60.0 mg/kg/injection, schedule: Q01DX Z (oral), vehicle: saline",100 % of control
same,T/C,[1],104 % of control
same,T/C,"dose: 120.0 mg/kg/injection, schedule: Q01DX Z (ip), vehicle: saline",105 % of control
same,T/C,"dose: 120.0 mg/kg/injection, schedule: Q01DX Z (oral), vehicle: saline",97 % of control
same,T/C,"dose: 150.0 mg/kg/injection, schedule: Q01DX009 (ip), vehicle: saline",106 % of control
same,T/C,"dose: 240.0 mg/kg/injection, schedule: Q01DX Z (oral), vehicle: saline",103 % of control
O=[N+]([O-])c1ccccc1-c1ccccc1[N+](=O)[O-],T/C,"dose: 100.0 mg/kg/injection, schedule: Q04DX002 (ip), vehicle: saline with Tween-80",97 % of control
same,T/C,"dose: 200.0 mg/kg/injection, schedule: Q04DX002 (ip), vehicle: saline with Tween-80",90 % of control
same,T/C,"dose: 400.0 mg/kg/injection, schedule: Q04DX002 (ip), vehicle: saline with Tween-80",87 % of control
O=c1[nH]c2ccccc2nc1C(Cl)(Cl)Cl,T/C,"dose: 100.0 mg/kg/injection, schedule: Q04DX002 (ip), vehicle: Klucel (hydroxypropylcellulose) (HPC)",112 % of control
same,T/C,"dose: 200.0 mg/kg/injection, schedule: Q04DX002 (ip), vehicle: Klucel (hydroxypropylcellulose) (HPC)",105 % of control
C=CCOC(=O)CCOCC,T/C,"dose: 55.0 mg/kg/injection, schedule: Q01DX Z (ip), vehicle: methylcellulose (MC)",90 % of control
same,T/C,"dose: 83.0 mg/kg/injection, schedule: Q01DX Z (ip), vehicle: methylcellulose (MC)",94 % of control
same,T/C,"dose: 125.0 mg/kg/injection, schedule: Q01DX Z (ip), vehicle: methylcellulose (MC)",90 % of control
CCCCOP(=O)(NC12CC3CC(CC(C3)C1)C2)OCCCC,T/C,[5],97 % of control
same,T/C,[6],100 % of control
same,T/C,[7],97 % of control
same,T/C,[8],92 % of control
same,T/C,[9],100 % of control
same,T/C,[10],96 % of control
CC1CCC(NC(=O)N(CCF)N=O)CC1 (stereo not drawn),T/C,"dose: 8.0 mg/kg/injection, schedule: Q01DX001 (ip), vehicle: other",115 % of control
same,T/C,"dose: 26.0 mg/kg/injection, schedule: Q01DX001 (ip), vehicle: other",433 % of control
same,T/C,"dose: 40.0 mg/kg/injection, schedule: Q01DX001 (ip), vehicle: other",500 % of control
same,T/C,"dose: 60.0 mg/kg/injection, schedule: Q01DX001 (ip), vehicle: other",437 % of control
CCCCCCCCN(NC(=O)c1ccccc1)S(=O)(=O)c1ccccc1,T/C,"dose: 25.0 mg/kg/injection, schedule: Q01DX001 (ip), vehicle: carboxymethylcellulose (CMC)",100 % of control
same,T/C,"dose: 25.0 mg/kg/injection, schedule: Q04DX003 (ip), vehicle: carboxymethylcellulose (CMC)",96 % of control
same,T/C,"dose: 50.0 mg/kg/injection, schedule: Q01DX001 (ip), vehicle: carboxymethylcellulose (CMC)",100 % of control
same,T/C,"dose: 50.0 mg/kg/injection, schedule: Q01DX009 (ip), vehicle: carboxymethylcellulose (CMC)",97 % of control and 89 % of control
same,T/C,"dose: 50.0 mg/kg/injection, schedule: Q04DX002 (ip), vehicle: carboxymethylcellulose (CMC)",100 % of control and 107 % of control
same,T/C,"dose: 50.0 mg/kg/injection, schedule: Q04DX003 (ip), vehicle: carboxymethylcellulose (CMC)",96 % of control
same,T/C,"dose: 100.0 mg/kg/injection, schedule: Q01DX001 (ip), vehicle: carboxymethylcellulose (CMC)",98 % of control
same,T/C,"dose: 100.0 mg/kg/injection, schedule: Q01DX009 (ip), vehicle: carboxymethylcellulose (CMC)",100 % of control and 105 % of control
same,T/C,"dose: 100.0 mg/kg/injection, schedule: Q04DX002 (ip), vehicle: carboxymethylcellulose (CMC)",100 % of control and 101 % of control
same,T/C,"dose: 200.0 mg/kg/injection, schedule: Q04DX002 (ip), vehicle: carboxymethylcellulose (CMC)",102 % of control and 103 % of control
CCC[CH2][Sn]([CH2]CCC)([CH2]CCC)[CH2]c1ccccc1,T/C,[2],98 % of control
same,T/C,[3],102 % of control
same,T/C,[4],88 % of control
CCOC(=O)CCC(C)(C#N)C(C#N)C(=O)OCC (stereo not drawn),T/C,"dose: 100.0 mg/kg/injection, schedule: Q01DX009 (ip), vehicle: saline sonified",97 % of control
same,T/C,"dose: 100.0 mg/kg/injection, schedule: Q04DX003 (ip), vehicle: saline sonified",108 % of control
same,T/C,"dose: 200.0 mg/kg/injection, schedule: Q01DX009 (ip), vehicle: saline sonified",110 % of control
same,T/C,"dose: 200.0 mg/kg/injection, schedule: Q04DX003 (ip), vehicle: saline sonified",97 % of control
same,T/C,"dose: 400.0 mg/kg/injection, schedule: Q01DX009 (ip), vehicle: saline sonified",100 % of control
same,T/C,"dose: 400.0 mg/kg/injection, schedule: Q04DX003 (ip), vehicle: saline sonified",98 % of control
CCCC(C=NCC(CCC)(CCN(C)C)c1cccc2ccccc12)(CCN(C)C)c1cccc2ccccc12 (stereo not drawn),T/C,"dose: 6.25 mg/kg/injection, schedule: Q04DX002 (ip), vehicle: Klucel (hydroxypropylcellulose) (HPC)",88 % of control
same,T/C,"dose: 12.5 mg/kg/injection, schedule: Q04DX002 (ip), vehicle: Klucel (hydroxypropylcellulose) (HPC)",101 % of control
same,T/C,"dose: 25.0 mg/kg/injection, schedule: Q04DX002 (ip), vehicle: Klucel (hydroxypropylcellulose) (HPC)",104 % of control
CCCCCCCCCCCCCCCCOc1ccc(S(=O)(=O)Nc2cc(C(=O)OC)cc(C(=O)OC)c2)cc1[N+](=O)[O-],T/C,[5],98 % of control
same,T/C,[6],93 % of control
same,T/C,[7],97 % of control
same,T/C,[8],95 % of control
same,T/C,[9],92 % of control
same,T/C,[10],91 % of control
COc1ccc(Nc2cc(=O)[nH]c(N)n2)cc1,T/C,"dose: 100.0 mg/kg/injection, schedule: Q01DX Z (ip), vehicle: methylcellulose (MC)",112 % of control
same,T/C,"dose: 200.0 mg/kg/injection, schedule: Q01DX Z (ip), vehicle: methylcellulose (MC)",108 % of control
CN(C)/C=N/n1cnnc1,T/C,[2],94 % of control
same,T/C,[3],98 % of control
same,T/C,[4],102 % of control

# — PubChem BioAssay AID248 (DTP/NCI, 2004)
